This is an account of results in ChEMBL document CHEMBL4765380, “Synthesis, structure and anticancer activity of new geldanamycin amine analogs containing C(17)- or C(20)- flexible and rigid arms as well as closed or open ansa-bridges” (Eur J Med Chem, 2020).

pIC50, pKd: −log10 of the molar value.

The nature of data set [1]: Selectivity index, ratio of IC50 for cytotoxicity against human HDF cells to IC50 for cytotoxicity against human SK-OV-3 cells.
The nature of data set [2]: Selectivity index, ratio of IC50 for cytotoxicity against human HDF cells to IC50 for cytotoxicity against human A549 cells. Type of data set: toxicity, cell-based. The settings on record: HDF cells versus A549 cells, read-out: Ratio IC50.
Data set [3] can be described thus: Selectivity index, ratio of IC50 for cytotoxicity against human HDF cells to IC50 for cytotoxicity against human SK-BR-3 cells. Type of data set: toxicity, cell-based. The following applies: HDF cells versus SK-BR-3 cells, read-out: Ratio IC50.
Another data set has as its system SK-OV-3. In words: Antiproliferative activity against human SK-OV-3 cells assessed as reduction in cell growth incubated for 72 hrs by SRB assay. It counts as functional, cell-based. The settings on record: SK-OV-3, 72 h. Background: The SRB assay estimates cell density from bound dye.
Data set [4] in a line: Selectivity index, ratio of IC50 for cytotoxicity against human HDF cells to IC50 for cytotoxicity against human PC-3 cells. It counts as toxicity, cell-based. The following applies: HDF cells versus PC-3 cells, read-out: Ratio IC50.
The test system of the next data set is PC-3. In words: Antiproliferative activity against human PC-3 cells assessed as reduction in cell growth incubated for 72 hrs by SRB assay. Type of data set: functional, cell-based. The following applies: PC-3, 72 h.
The next data set deals with SK-BR-3. In words: Antiproliferative activity against human SK-BR-3 cells assessed as reduction in cell growth incubated for 72 hrs by SRB assay. Type of data set: functional, cell-based. The settings on record: SK-BR-3, 72 h.
Data set [5] can be described thus: Cytotoxicity against human HDF cells assessed as reduction in cell growth incubated for 72 hrs by SRB assay. The following applies: HDFa. Type of data set: cell-based.
Another data set has as its system A549. In words: Antiproliferative activity against human A549 cells assessed as reduction in cell growth incubated for 72 hrs by SRB assay. It counts as functional, cell-based. The following applies: A549, 72 h.
The next data set has as its system U-87 MG. In words: Antiproliferative activity against human U-87 MG cells assessed as reduction in cell growth incubated for 72 hrs by SRB assay. It counts as functional, cell-based, U-87MG ATCC.
The nature of data set [6]: Selectivity index, ratio of IC50 for cytotoxicity against human HDF cells to IC50 for cytotoxicity against human U-87 MG cells. It counts as toxicity, cell-based. The following applies: HDF cells versus U-87 MG cells, read-out: Ratio IC50.
Data set [7] in a line: Binding affinity to HSP90 (unknown origin) assessed as dissociation constant by isothermal titration calorimetry. Further details: species or system Homo sapiens. In general terms: In ITC the heat of successive injections is recorded.
The nature of data set [8]: Octanol/water partition coefficient, logP of compound incubated for 1 hr by UV-visible spectrophotometry. Type of data set: physicochemical.
The nature of data set [9]: Binding affinity to HSP90 (unknown origin). Further details: species or system Homo sapiens.
The nature of data set [10]: Binding affinity to yeast HSP90 assessed as dissociation constant by isothermal titration calorimetry. Further details: species or system Saccharomyces cerevisiae.

Consider `CO[C@H]1/C=C\C=C(/C)C(=O)NC2=CC(=O)C(NCC3CCC(C(=O)O)CC3)=C(C[C@@H](C)C[C@H](OC)[C@H](O)[C@@H](C)/C=C(\C)[C@@H]1OC(N)=O)C2=O` (stereo not given in full), for which, in data set [1], the “Ratio IC50” value is given as 2.64. For the same compound, the selectivity ratio in data set [2] stood at 2.53; in [3], 2.82; in data set [4], 3.12; in data set [6], 2.52. In addition, the pIC50 in the data set on SK-OV-3 was 5.55; in the data set on PC-3 it was 5.63; in the data set on SK-BR-3, 5.58; in [5] it was 5.13; in the data set on A549, 5.54; in the data set on U-87 MG, 5.55. Besides, in data set [7], the pKd is 6.03.
Regarding `CCOC(=O)N1CCC(NC2=C3C[C@@H](C)C[C@H](OC)[C@H](O)[C@@H](C)/C=C(\C)[C@H](OC(N)=O)[C@@H](OC)/C=C\C=C(/C)C(=O)NC(=CC2=O)C3=O)CC1`, the “Ratio IC50” value in data set [1] was determined as 3.96. Moreover, the selectivity ratio in data set [2] worked out at 4.77; in data set [3] it was 3.41; in data set [4], 4.69; in data set [6], 4.94. The compound also registered a logP at 1 h in data set [8] of 2.39. The pIC50 was 5.94 in the data set on PC-3; 5.80 with SK-BR-3; 5.27 in [5]; 5.95 in the data set on A549; 5.96 in the data set with U-87 MG. In addition, in [7], the pKd was 6.05.
As for `COC1=C2C[C@@H](C)C[C@H](OC)[C@H](O)[C@@H](C)/C=C(\C)[C@H](OC(N)=O)[C@@H](OC)/C=C\C=C(/C)C(=O)NC(=CC1=O)C2=O` [GELDANAMYCIN], the pKd in [9] was 4.98; in [10], 5.91. The “Ratio IC50” value in [1] was determined as 2.27. The selectivity ratio in [2] came out at 2.15; in data set [3], 2.45; in data set [4], 2.92; in data set [6], 2.62. For the same compound, the pIC50 in the data set on SK-OV-3 was 6.03; with PC-3, 6.14; in the data set with SK-BR-3, 6.06; in [5] it was 5.67; in the data set with A549, 6.00; in the data set on U-87 MG it was 6.09.
In the case of `CCOC(=O)C1CCC(CNC2=C3C[C@@H](C)C[C@H](OC)[C@H](O)[C@@H](C)/C=C(\C)[C@H](OC(N)=O)[C@@H](OC)/C=C\C=C(/C)C(=O)NC(=CC2=O)C3=O)CC1` (stereo not given in full), the “Ratio IC50” value in data set [1] came out at 3.91. The selectivity ratio in data set [2] is 3.64; in [3], 3.64; in data set [4] it was 3.21; in [6], 3.47. The compound further registered a logP at 1 h in [8] of 2.9. Also, the pIC50 is 6.26 with SK-OV-3; 6.24 in the data set on PC-3; 6.23 in the data set with SK-BR-3; 5.67 in [5]; 6.23 with A549; 6.21 in the data set on U-87 MG. Besides, in [7], the pKd was 6.05.
On to `CO[C@H]1/C=C\C=C(/C)C(=O)NC2=CC(=O)C(NCC3COCCOCCOCCOCCOCCO3)=C(C[C@@H](C)C[C@H](OC)[C@H](O)[C@@H](C)/C=C(\C)[C@@H]1OC(N)=O)C2=O` (stereo not given in full), for which, in data set [1], the “Ratio IC50” value was 6.17. The selectivity ratio was found to be 3.73 in data set [2], 5.73 in data set [3], 6.78 in data set [4] and 4.85 in data set [6]. Moreover, the pIC50 is 6.18 with SK-OV-3; 6.22 in the data set on PC-3; 6.15 with SK-BR-3; 5.39 in data set [5]; 5.96 in the data set with A549; 6.08 in the data set on U-87 MG. The pKd in data set [7] is 5.92.
Compound `C=CCNC1=C2C[C@@H](C)C[C@H](OC)[C@H](O)[C@@H](C)/C=C(\C)[C@H](OC(N)=O)[C@@H](OC)/C=C\C=C(/C)C(=O)NC(=CC1=O)C2=O` [TANESPIMYCIN] showed a pKd in data set [9] of 5.61. Besides, the selectivity ratio in data set [2] was found to be 52; in [3], 49; in [6] it was 51. In addition, the pIC50 in the data set on SK-OV-3 was 6.66; in the data set on PC-3 it was 7.21; in the data set on SK-BR-3, 7.42; in [5] it was 5.92; with A549, under 5.00; in the data set with U-87 MG, under 5.00.
As to `COCCOCCOCCNC1=C2C[C@@H](C)C[C@H](OC)[C@H](O)[C@@H](C)/C=C(\C)[C@H](OC(N)=O)[C@@H](OC)/C=C\C=C(/C)C(=O)NC(=CC1=O)C2=O`, the “Ratio IC50” value in data set [1] is 3.74. In addition, the selectivity ratio in data set [2] worked out at 3.04; in [3], 2.98; in data set [4], 3.42; in data set [6] it was 3.51. Besides, the logP at 1 h in [8] was determined as 2.02. Further, the pIC50 is 6.13 in the data set with SK-OV-3; 6.09 in the data set with PC-3; 6.03 in the data set with SK-BR-3; 5.56 in [5]; 6.04 with A549; 6.10 in the data set with U-87 MG. In addition, the pKd in [7] was 5.86.
Turning to `CO[C@H]1/C=C\C=C(/C)C(=O)NC2=CC(=O)C(NC3CCN(C(=O)OC(C)(C)C)CC3)=C(C[C@@H](C)C[C@H](OC)[C@H](O)[C@@H](C)/C=C(\C)[C@@H]1OC(N)=O)C2=O`, the “Ratio IC50” value in data set [1] amounted to 30.7. The selectivity ratio in data set [2] stood at 33.1; in [3], 33.1; in [4] it was 13.4; in [6], 30.4. In data set [8], this compound returned a logP at 1 h of 3.11. The negative-log IC50 (pIC50) in the data set on SK-OV-3 was 7.08; with PC-3, 6.72; with SK-BR-3, 7.11; in [5], 5.59; in the data set with A549 it was 7.11; in the data set on U-87 MG, 7.08. In data set [7], the negative logarithm of the Kd (pKd) is 6.09.
As to `C#CCCN1CCC(NC2=C3C[C@@H](C)C[C@H](OC)[C@H](O)[C@@H](C)/C=C(\C)[C@H](OC(N)=O)[C@@H](OC)/C=C\C=C(/C)C(=O)NC(=CC2=O)C3=O)CC1`, in [1], the “Ratio IC50” value was found to be 2.48. Besides, the selectivity ratio worked out at 2.69 in [2], 2.49 in data set [3], 2.87 in data set [4] and 2.42 in [6]. For the same compound, the pIC50 in the data set with SK-OV-3 was 5.33; in the data set with PC-3 it was 5.39; with SK-BR-3 it was 5.33; in data set [5] it was 4.93; in the data set on A549, 5.36; in the data set with U-87 MG, 5.31. In addition, the pKd in [7] was 5.53.

A word on the pIC50: it is −log10 of the IC50, conventionally taken in molar units. The term pKd denotes the Kd on a negative log10 scale, so that one unit is a factor of ten. In general, logP refers to a log measure of how a compound divides between an organic and an aqueous phase.
